{
  "source": "patent US6818200B2",
  "about": "“Method of using deuterated calcium channel blockers” (priority 1994, dated 2004)",
  "key": {"[1]": {"test_system": "normotensive Sprague-Dawley rats", "test": "Nifedipines on blood pressure in normotensive Sprague-Dawley rats (Example V)", "format": "in vivo, rat", "settings": "for maximum change in mean arterial pressure at equipotent doses: 1 ml injected, control 2×10^−3 molar, p=NS; for maximum change in mean arterial pressure at equipotent doses / duration of action (hypotensive response): deuterated 1×10^−3 molar; for duration of action (hypotensive response): equipotent doses: control 2×10^−3 molar, p=0.02", "from_the_text": "Effect of deuterated and control nifedipines on blood pressure in normotensive Sprague-Dawley rats."}, "[2]": {"test_system": "T type calcium channels in NE 115 cells", "test": "Use dependency of calcium channel inhibition, whole cell patch-clamp with repetitive pulses (Example IV)", "method": "In the following set of examples, calcium channels were depolarized with repetitive pulses of current at the intervals indicated. Such studies were carried out using the whole cell version of the patch-clamp. The reduction of inward current as a function of the interval between pulses in the absence of any drug was taken as the control."}, "[3]": {"test_system": "Spontaneously hypertensive rats (SHR)", "test": "Blood pressure effect of i.v. nifedipines in anesthetized spontaneously hypertensive rats (Example II)", "format": "in vivo, rat", "settings": "at the three lower concentrations, p=0.08 Wilcoxon rank-sum (FIG. 1)", "method": "Spontaneously hypertensive rats (SHR) were anesthetized with pentobarbital (65 mg/kg, intraperitoneally) and a carotid artery and jugular vein cannulated. Blood pressure was continuously monitored via the carotid artery cannula. […] Aliquots of appropriate dilutions were then injected intravenously in the SHR and blood pressure effects monitored for at least two hours following injection. Doses used were 0.00001, 0.00002, 0.000025, and 0.00005 moles per rat in the control group and in the test group. All rats were within 25 grams of body weight of each other."}, "[4]": {"test_system": "normotensive Sprague-Dawley rats", "test": "Nicardipines on blood pressure in normotensive Sprague-Dawley rats (Example VI)", "format": "in vivo, rat", "settings": "for slope function of dose response: calculated by Litchfield-Wilcoxon method; for change in mean arterial pressure at equipotent doses: control 1×10^−9 moles, deuterated 3×10^−9 moles, p=NS; for ED16, reduction in mean arterial pressure / ED50, reduction in mean arterial pressure / ED84, reduction in mean arterial pressure: injected, anesthetized rats", "from_the_text": "Effect of deuterated control […] on blood pressure in normotensive Sprague-Dawley rats."}, "Streptococcus faecalis [5]": {"test_system": "Streptococcus faecalis", "test": "Antibiotic tube dilution (NCCLS)", "format": "cell-based", "settings": "tube dilution (FIG. 26 methicillin)", "description": "(§1) Antibiotic testing was carried out using disc diffusion and tube dilution methods following NCCLS (National Committee for Clinical Laboratory Standards) methodology with several strains of bacteria.\n(§2) Antibiotic testing was carried using disc diffusion and tube dilution methods following NCCLS (National Committee for Clinical Laboratory Standards) methodology."}, "Streptococcus pyogenes [6]": {"test_system": "Streptococcus pyogenes", "test": "Antibiotic tube dilution (NCCLS)", "format": "cell-based", "settings": "tube dilution (FIG. 20 penicillin V, FIG. 26 methicillin)", "description": "as §1, §2"}, "Staphylococcus aureus [7]": {"test_system": "Staphylococcus aureus", "test": "Antibiotic tube dilution (NCCLS)", "format": "cell-based", "settings": "tube dilution (FIG. 20 penicillin V, FIG. 26 methicillin)", "description": "as §1, §2"}, "Streptococcus faecalis [8]": {"test_system": "Streptococcus faecalis", "test": "Antibiotic disc diffusion (NCCLS)", "format": "cell-based", "settings": "disc diffusion (FIGS. 21, 22 penicillin V; FIG. 27 methicillin)", "description": "as §1, §2"}, "Streptococcus pyogenes [9]": {"test_system": "Streptococcus pyogenes", "test": "Antibiotic disc diffusion (NCCLS)", "format": "cell-based", "settings": "disc diffusion (FIGS. 21, 22 penicillin V; FIG. 27 methicillin)", "description": "as §1, §2"}, "Staphylococcus aureus [10]": {"test_system": "Staphylococcus aureus", "test": "Antibiotic disc diffusion (NCCLS)", "format": "cell-based", "settings": "disc diffusion (FIG. 19, 29 ceftazidime; FIGS. 21, 22 penicillin V; FIG. 27 methicillin)", "description": "as §1, §2"}, "S. aureus": {"test_system": "S. aureus", "test": "Penicillin V dose-response study", "format": "cell-based", "description": "A dose-response study for penicillin V using S. aureus was conducted (FIG. 30). […] These conditions used a higher inoculum (100 fold) than previous studies.\nA experiment similar to that above was performed except that the dose range was larger."}, "S. pyogenes": {"test_system": "S. pyogenes", "test": "Effect of solvent (water or D2O) on ceftazidime activity", "format": "cell-based", "settings": "dissolved in D2O (FIG. 33)", "description": "The effect of solvent on ceftazidime activity was tested to confirm that dissolving ceftazidime in D2O could alter its efficacy. We therefore dissolved control and modified ceftazidime in water of D2O and tested it effect on S. pyogenes (FIG. 33). […] Thus, our findings underscore the unique importance of isotopes."}, "[11]": {"test_system": "Staphylococcus aureus (ATCC 25923) or Streptococcus faecalis (ATCC 29212)", "test": "Penicillin V zonal inhibition on Mueller-Hinton agar plates", "format": "cell-based", "settings": "disks with 0.1 ml of 1 mg/ml solution, 24 hours at 37° C. (FIG. 23)", "description": "Penicillin V. or deuterated penicillin V disks were prepared by allowing 0.1 ml of a 1 mg/ml solution of the respective drugs to absorb into filter paper disks. After drying the disks were placed onto Mueller-Hinton agar plates seeded with either Staphylococcus aureus (ATCC 25923) or Streptococcus faecalis (ATCC 29212). The resulting plates were incubated for 24 hours at 37° C. and zones of inhibition around the disks were measured. Results are graphically depicted in FIG. 23."}, "[12]": {"test_system": "S. aureus clinical isolates", "test": "Penicillin V on clinical isolates", "format": "cell-based", "settings": "methicillin sensitive isolates (FIGS. 34 and 35)", "description": "The effect of control and deuterated penicillin V on S. aureus clinical isolates was determined (FIGS. 34 and 35). […] The modest differences may be related to the concentrations used and density of bacterial seeding on the plates."}},
  "data": [
    {"smiles": "[2H]C([2H])([2H])C1=C(C(=O)OC)C(c2ccccc2[N+](=O)[O-])C(C(=O)OC)=C(C([2H])([2H])[2H])N1", "note": "[deuterated nifedipine]", "values": [
      {"measurement": "maximum change in mean arterial pressure at equipotent doses", "setting": "[1]", "result": "−40.3", "unit": "mmHg"},
      {"measurement": "potency on mean arterial pressure compared with control", "setting": "[1]; all doses, six rats per dose, p<0.05 (FIG. 6)", "result": "more potent than control nifedipine"},
      {"measurement": "duration of effect compared with control", "setting": "[1]; at each time period", "result": "greater for deuterated nifedipine compared to control nifedipine"},
      {"measurement": "duration of action (hypotensive response)", "setting": "[1]", "result": 62.2, "unit": "min"},
      {"measurement": "calcium current inhibition as a function of pulse frequency", "setting": "[2]; 1 and 0.3 second intervals, 5 micromolar (FIG. 4)", "result": "more effective than control nifedipine in blocking the calcium channels"},
      {"measurement": "decrease of inward current at increased stimulation frequency", "setting": "[2]; 5 micromolar, FIG. 2 panel C", "result": "more effective than control nifedipine"},
      {"measurement": "use dependent calcium channel inhibition", "setting": "[2]; all frequencies, 5 micromolar (FIG. 5)", "result": "greater use dependent calcium channel inhibition"},
      {"measurement": "inhibitory effect on inward calcium current", "setting": "[2]; repetitive 1 second pulses, 5 micromolar, p<0.05 (FIG. 3)", "result": "more effective at blocking calcium current than control current"},
      {"measurement": "hypotensive effect compared with regular nifedipine", "setting": "[3]", "result": "greater than that of regular nifedipine"}
    ]},
    {"smiles": "[2H]C([2H])([2H])C1=C(C(=O)OC)C(c2cccc([N+](=O)[O-])c2)C(C(=O)OCCN(C)Cc2ccccc2)=C(C([2H])([2H])[2H])N1", "note": "(stereo not drawn) [deuterated nicardipine]", "values": [
      {"measurement": "duration of effect compared with control", "setting": "[4]; at most time periods (FIG. 10)", "result": "greater for deuterated nicardipine compared to control nicardipine"},
      {"measurement": "slope function of dose response", "setting": "[4]", "result": 46},
      {"measurement": "change in mean arterial pressure at equipotent doses", "setting": "[4]", "result": "−13.8", "unit": "mmHg"},
      {"measurement": "ED16, reduction in mean arterial pressure", "setting": "[4]", "result": "4.62e-05", "unit": "mmol"},
      {"measurement": "ED50, reduction in mean arterial pressure", "setting": "[4]", "result": 0.00211, "unit": "mmol"},
      {"measurement": "ED84, reduction in mean arterial pressure", "setting": "[4]", "result": 0.09, "unit": "mmol"}
    ]},
    {"smiles": "[2H]c1c([2H])c(OC)c(C(=O)N([2H])C2C(=O)N3C2SC(C)(C)C3C(=O)[O-])c(OC)c1[2H].[Na+]", "note": "(stereo not drawn) [modified methicillin]", "values": [
      {"measurement": "concentration necessary to inhibit growth, modified vs control drug", "setting": "Streptococcus faecalis [5]", "result": "less for control compared to modified drug"},
      {"measurement": "concentration necessary to inhibit growth, modified vs control drug", "setting": "Streptococcus pyogenes [6]", "result": "less for control compared to modified drug"},
      {"measurement": "concentration necessary to inhibit growth, modified vs control drug", "setting": "Staphylococcus aureus [7]", "result": "less for control compared to modified drug"},
      {"measurement": "zones of inhibition, modified vs control drug", "setting": "Streptococcus faecalis [8]", "result": "less for modified compared to control drug"},
      {"measurement": "zones of inhibition, modified vs control drug", "setting": "Streptococcus pyogenes [9]", "result": "less for modified compared to control drug"},
      {"measurement": "zones of inhibition, modified vs control drug", "setting": "Staphylococcus aureus [10]", "result": "less for modified compared to control drug"}
    ]},
    {"smiles": "COC(=O)C1=C(C)NC(C)=C(C(=O)OCCN(C)Cc2ccccc2)C1c1cccc([N+](=O)[O-])c1", "note": "(stereo not drawn) [control nicardipine, nicardipine, reference compound]", "values": [
      {"measurement": "slope function of dose response", "setting": "[4]", "result": 416},
      {"measurement": "change in mean arterial pressure at equipotent doses", "setting": "[4]", "result": "−13.8", "unit": "mmHg"},
      {"measurement": "ED16, reduction in mean arterial pressure", "setting": "[4]", "result": "6.11e-06", "unit": "mmol"},
      {"measurement": "ED50, reduction in mean arterial pressure", "setting": "[4]", "result": 0.00254, "unit": "mmol"},
      {"measurement": "ED84, reduction in mean arterial pressure", "setting": "[4]", "result": 1.06, "unit": "mmol"}
    ]},
    {"smiles": "CC1(C)S[C@@H]2[C@H](NC(=O)COc3ccccc3)C(=O)N2[C@H]1C(=O)O", "note": "[control penicillin V, penicillin V, reference compound]", "values": [
      {"measurement": "bacteriocidal activity", "setting": "S. aureus; higher doses, larger dose range (FIG. 31)", "result": "ineffective"}
    ]},
    {"smiles": "COC(=O)C1=C(C)NC(C)=C(C(=O)OC)C1c1ccccc1[N+](=O)[O-]", "note": "[nifedipine, reference compound]", "values": [
      {"measurement": "maximum change in mean arterial pressure at equipotent doses", "setting": "[1]", "result": "−45.8", "unit": "mmHg"},
      {"measurement": "duration of action (hypotensive response)", "setting": "[1]", "result": 46.5, "unit": "min"}
    ]},
    {"smiles": "CC(C)(O/N=C(\\C(=O)N[C@@H]1C(=O)N2C(C(=O)[O-])=C(C[n+]3ccccc3)CS[C@H]12)c1csc(N)n1)C(=O)O", "note": "[control ceftazidime, ceftazidime]", "values": [
      {"measurement": "activity when dissolved in D2O", "setting": "S. pyogenes", "result": "enhance activity"}
    ]},
    {"smiles": "CC1(C)S[C@@H]2[C@H](NC(=O)COc3ccccc3)C(=O)N2[C@H]1C(=O)O", "note": "[deuterated penicillin V]", "values": [
      {"measurement": "bacteriocidal activity", "setting": "S. aureus; high dose, higher inoculum (100 fold) (FIG. 30)", "result": "began to show effect"},
      {"measurement": "bacteriocidal activity", "setting": "S. aureus; higher doses, larger dose range (FIG. 31), listed as modified penicillin V", "result": "effective at higher doses"},
      {"measurement": "concentration necessary to inhibit growth, modified vs control drug", "setting": "Streptococcus pyogenes [6]", "result": "substantially less compared to control drug"},
      {"measurement": "concentration necessary to inhibit growth, modified vs control drug", "setting": "Staphylococcus aureus [7]", "result": "substantially less compared to control drug"},
      {"measurement": "potency relative to native penicillin V in zonal inhibition", "setting": "[11]", "result": "increase in potency"},
      {"measurement": "zones of inhibition, modified vs control drug", "setting": "Streptococcus faecalis [8]", "result": "greater for modified (test) compared to control drug"},
      {"measurement": "zones of inhibition, modified vs control drug", "setting": "Streptococcus pyogenes [9]", "result": "greater for modified (test) compared to control drug"},
      {"measurement": "zones of inhibition, modified vs control drug", "setting": "Staphylococcus aureus [10]", "result": "greater for modified (test) compared to control drug"},
      {"measurement": "potency, modified vs control drug", "setting": "[12]", "result": "always more potent than the controls"}
    ]}
  ]
}
